# Active and inactive are the calls of the source.
# Legend:
# Genome polyprotein = Genome polyprotein (dengue virus type 2, UniProt P29990); assay: flavivirus cap methylation enzyme inhibition – biochemical, confirmation dose response, primary screen (AID 588689); format: functional
# [1] = target: T1, High affinity choline transporter 1 (Homo sapiens, UniProt Q9GZV3); assay: human choline transporter blockers, potency – cell-based, 5-point CRC, membrane potential dye, dose response (AID 504840); format: functional
# T1 sequence (Q9GZV3 whole entry): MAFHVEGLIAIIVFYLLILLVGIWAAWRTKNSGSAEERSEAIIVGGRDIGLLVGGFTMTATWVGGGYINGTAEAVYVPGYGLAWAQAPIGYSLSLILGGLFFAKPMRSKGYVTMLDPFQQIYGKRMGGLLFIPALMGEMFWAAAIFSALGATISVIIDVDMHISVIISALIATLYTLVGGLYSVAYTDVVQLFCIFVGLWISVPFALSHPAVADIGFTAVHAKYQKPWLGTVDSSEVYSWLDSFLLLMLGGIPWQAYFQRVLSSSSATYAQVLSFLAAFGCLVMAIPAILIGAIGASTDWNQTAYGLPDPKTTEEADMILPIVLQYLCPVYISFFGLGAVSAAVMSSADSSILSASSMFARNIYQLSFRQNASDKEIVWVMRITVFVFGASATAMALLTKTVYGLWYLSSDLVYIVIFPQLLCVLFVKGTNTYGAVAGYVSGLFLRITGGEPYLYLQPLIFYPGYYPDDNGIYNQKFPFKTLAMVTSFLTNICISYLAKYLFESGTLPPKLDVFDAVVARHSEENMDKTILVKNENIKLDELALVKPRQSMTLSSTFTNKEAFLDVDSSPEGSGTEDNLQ
# [2] = target: T2, Replicative DNA helicase DnaB (Mycobacterium tuberculosis, UniProt P9WMR3); assay: DnaB intein splicing inhibitors, dose response, biochemical, cell-free fluorescence (AID 449749); format: functional
# T2 sequence (P9WMR3 whole entry): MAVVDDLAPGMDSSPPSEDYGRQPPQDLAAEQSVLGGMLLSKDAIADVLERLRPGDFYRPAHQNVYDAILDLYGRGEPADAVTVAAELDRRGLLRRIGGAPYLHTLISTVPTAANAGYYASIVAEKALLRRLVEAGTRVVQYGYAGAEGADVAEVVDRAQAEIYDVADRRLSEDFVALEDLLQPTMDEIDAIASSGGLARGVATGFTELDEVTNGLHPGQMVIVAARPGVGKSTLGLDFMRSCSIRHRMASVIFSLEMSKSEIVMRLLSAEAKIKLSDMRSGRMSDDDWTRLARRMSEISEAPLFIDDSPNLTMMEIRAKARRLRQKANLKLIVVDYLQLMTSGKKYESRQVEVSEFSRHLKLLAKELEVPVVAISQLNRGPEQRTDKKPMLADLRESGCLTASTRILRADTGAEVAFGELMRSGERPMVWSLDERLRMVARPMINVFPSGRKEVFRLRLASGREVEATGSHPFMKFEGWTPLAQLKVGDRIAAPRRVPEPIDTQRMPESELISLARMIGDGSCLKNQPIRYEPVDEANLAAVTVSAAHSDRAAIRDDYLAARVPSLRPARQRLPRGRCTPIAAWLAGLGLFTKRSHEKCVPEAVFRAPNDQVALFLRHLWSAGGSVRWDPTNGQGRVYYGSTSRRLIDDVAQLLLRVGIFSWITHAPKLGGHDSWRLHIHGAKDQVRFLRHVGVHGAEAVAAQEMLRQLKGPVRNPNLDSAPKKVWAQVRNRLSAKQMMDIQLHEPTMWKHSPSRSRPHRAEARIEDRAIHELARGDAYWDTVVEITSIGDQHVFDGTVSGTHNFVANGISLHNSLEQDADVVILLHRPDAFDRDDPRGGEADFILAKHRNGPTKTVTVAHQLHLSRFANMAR
# Protein RecA = target: T3, Protein RecA (Mycobacterium tuberculosis, UniProt P9WHJ3); assay: Fluorescence Cell-Free Homogeneous Dose Retest to Identify Inhibitors of RecA-Intein Splicing Activity. [Related pubchem assays (depositor defined):AID2097, AID2223, AID489010, AID492950]; format: functional
# T3 sequence (P9WHJ3 whole entry): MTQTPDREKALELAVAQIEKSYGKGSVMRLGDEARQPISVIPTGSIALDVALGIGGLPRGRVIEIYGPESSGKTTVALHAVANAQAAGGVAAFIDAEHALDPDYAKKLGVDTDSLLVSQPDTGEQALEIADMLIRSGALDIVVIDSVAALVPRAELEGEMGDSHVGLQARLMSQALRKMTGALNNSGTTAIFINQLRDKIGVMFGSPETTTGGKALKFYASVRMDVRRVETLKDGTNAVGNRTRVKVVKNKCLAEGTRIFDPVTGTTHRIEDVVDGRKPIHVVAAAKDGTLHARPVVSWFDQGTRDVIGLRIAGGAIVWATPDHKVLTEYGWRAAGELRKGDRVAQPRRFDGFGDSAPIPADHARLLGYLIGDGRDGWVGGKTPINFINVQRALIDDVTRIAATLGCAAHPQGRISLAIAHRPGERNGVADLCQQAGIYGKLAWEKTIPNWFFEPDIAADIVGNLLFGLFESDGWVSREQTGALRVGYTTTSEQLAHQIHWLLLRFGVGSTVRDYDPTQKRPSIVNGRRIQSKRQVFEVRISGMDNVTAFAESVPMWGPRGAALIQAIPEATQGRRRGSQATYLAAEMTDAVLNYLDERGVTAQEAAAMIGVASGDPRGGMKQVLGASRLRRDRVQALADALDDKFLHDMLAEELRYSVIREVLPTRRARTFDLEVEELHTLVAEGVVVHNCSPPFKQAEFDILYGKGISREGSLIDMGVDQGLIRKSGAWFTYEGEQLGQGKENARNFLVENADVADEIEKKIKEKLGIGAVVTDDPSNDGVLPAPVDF
# Paired box protein Pax-8 = Paired box protein Pax-8 (Homo sapiens, UniProt Q06710); assay: PAX8 transcriptional activity inhibition in RMG-I – RMG-I cells, luciferase, cherry-pick, dose response (AID 687027); format: functional, cell-based;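 also: luciferase reporter driven by Pax8 target thyroperoxidase promoter measured by SteadyGlo luminescence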
# [3] = OVCAR8 cell viability loss – plate reader, dry powder samples, PAX8 project, dose response (AID 743197); format: functional, cell-based; settings: OVCAR-8
# [4] = intracellular Trypanosoma cruzi inhibitors in host cells – cell-based, plate reader, cherry-pick samples, set 3, dose response (AID 651818); format: functional;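 also: compounds incubated with infected cells for about four days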
# [5] = A549 cell cytotoxicity, dose response, cytotoxicity control, plate reader, cherry-pick, antagonist series (AID 743412); format: functional, cell-based
# Aminopeptidase N = target: T4, Aminopeptidase N (Plasmodium falciparum FcB1/Columbia, UniProt O96935); assay: malaria alanyl aminopeptidase activity blockers – biochemical, fluorogenic H-Leu-NHMec substrate, 1536-well (AID 1445); set-up: species or system Plasmodium falciparum 3D7, 3D7
# T4 sequence (O96935 whole entry): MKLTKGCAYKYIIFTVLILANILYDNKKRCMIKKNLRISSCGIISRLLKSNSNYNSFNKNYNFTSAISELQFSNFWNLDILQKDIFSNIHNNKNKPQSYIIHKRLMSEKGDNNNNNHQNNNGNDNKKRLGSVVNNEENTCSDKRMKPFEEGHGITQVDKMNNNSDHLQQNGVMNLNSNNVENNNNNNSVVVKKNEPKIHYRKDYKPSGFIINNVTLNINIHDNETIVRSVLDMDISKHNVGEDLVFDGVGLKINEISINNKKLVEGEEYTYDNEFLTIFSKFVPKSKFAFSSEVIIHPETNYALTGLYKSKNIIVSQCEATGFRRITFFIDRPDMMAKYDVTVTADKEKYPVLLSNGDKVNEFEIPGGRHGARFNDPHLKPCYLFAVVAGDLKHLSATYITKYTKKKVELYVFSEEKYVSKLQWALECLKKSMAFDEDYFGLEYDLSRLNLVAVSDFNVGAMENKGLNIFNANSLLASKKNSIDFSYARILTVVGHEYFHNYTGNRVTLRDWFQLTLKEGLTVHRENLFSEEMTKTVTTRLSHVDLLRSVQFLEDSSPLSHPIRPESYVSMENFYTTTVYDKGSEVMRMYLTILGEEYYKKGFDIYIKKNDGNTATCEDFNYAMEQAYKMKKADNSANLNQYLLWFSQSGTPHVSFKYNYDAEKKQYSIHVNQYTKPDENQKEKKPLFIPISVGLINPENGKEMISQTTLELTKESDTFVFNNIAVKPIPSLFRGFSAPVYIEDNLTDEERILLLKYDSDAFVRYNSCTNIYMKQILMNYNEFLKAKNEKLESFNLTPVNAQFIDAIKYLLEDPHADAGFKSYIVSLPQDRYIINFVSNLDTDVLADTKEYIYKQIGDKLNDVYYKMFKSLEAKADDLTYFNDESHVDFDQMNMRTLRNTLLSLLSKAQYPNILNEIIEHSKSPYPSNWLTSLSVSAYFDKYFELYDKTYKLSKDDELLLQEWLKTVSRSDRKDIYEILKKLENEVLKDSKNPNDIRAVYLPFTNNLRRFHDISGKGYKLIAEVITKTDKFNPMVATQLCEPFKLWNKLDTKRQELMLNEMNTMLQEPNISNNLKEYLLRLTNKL
# cells [6] = format: functional, cell-based
# cells [7] = format: functional, cell-based; remark: listed apart in the source
# [8] = Luminescence Cell-Based Dose Retest to Confirm Inhibitors of Cancer Stem Cells. [Related pubchem assays (depositor defined):AID2717, AID2721]; format: functional; settings: Homo sapiens
# [9] = target: T5, Low molecular weight phosphotyrosine protein phosphatase (Homo sapiens, UniProt P24666); format: functional; settings: read-out: IC50_Mean;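 also: Dose-response confirmation assay measuring inhibition of LMPTP enzyme activity by fluorescence intensity read-out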
# T5 sequence (P24666 whole entry): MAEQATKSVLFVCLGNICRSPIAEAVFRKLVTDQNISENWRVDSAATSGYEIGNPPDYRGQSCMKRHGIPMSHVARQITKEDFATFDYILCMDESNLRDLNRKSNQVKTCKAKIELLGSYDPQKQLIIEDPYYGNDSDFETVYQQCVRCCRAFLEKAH
# Chain of Paired box protein Pax-8 (Q06710 whole entry): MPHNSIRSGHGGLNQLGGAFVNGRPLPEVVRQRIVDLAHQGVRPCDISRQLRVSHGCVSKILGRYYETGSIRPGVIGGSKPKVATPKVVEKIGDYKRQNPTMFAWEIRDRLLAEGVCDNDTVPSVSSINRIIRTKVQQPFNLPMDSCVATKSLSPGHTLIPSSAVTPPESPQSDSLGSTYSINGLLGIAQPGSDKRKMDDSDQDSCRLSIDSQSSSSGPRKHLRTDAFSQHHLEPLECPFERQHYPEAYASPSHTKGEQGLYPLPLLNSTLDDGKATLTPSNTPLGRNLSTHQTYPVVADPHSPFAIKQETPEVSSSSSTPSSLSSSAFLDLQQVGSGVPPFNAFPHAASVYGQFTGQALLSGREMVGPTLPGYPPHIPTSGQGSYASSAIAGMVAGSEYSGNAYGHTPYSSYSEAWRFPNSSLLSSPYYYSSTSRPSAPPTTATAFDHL
# Chain of Genome polyprotein (P29990 2492-3391 limits assumed): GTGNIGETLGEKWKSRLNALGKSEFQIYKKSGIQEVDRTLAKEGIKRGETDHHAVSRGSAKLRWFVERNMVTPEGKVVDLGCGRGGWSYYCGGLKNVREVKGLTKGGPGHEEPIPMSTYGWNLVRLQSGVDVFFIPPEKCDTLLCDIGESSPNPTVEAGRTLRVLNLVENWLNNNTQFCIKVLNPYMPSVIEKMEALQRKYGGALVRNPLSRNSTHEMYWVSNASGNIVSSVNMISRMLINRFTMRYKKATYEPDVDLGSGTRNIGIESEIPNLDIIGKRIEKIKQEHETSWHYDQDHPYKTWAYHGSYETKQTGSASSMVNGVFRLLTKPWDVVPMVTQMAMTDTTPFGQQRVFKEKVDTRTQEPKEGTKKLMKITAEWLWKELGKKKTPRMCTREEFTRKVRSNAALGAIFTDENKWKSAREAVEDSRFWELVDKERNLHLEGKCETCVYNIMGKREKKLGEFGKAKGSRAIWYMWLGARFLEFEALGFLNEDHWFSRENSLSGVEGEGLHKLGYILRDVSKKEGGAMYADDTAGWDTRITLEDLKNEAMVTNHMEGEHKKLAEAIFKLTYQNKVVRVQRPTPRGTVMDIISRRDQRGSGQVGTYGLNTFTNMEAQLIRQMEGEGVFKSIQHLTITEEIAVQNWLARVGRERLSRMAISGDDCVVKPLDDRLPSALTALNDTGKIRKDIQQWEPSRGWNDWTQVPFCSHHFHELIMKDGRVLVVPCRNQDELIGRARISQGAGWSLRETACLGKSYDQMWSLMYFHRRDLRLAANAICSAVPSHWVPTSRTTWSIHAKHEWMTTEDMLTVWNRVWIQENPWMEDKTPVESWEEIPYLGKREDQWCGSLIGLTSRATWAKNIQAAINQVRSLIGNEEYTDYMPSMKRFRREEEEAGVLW
smiles,measurement,setting,value
O=C1c2ccccc2C(O)(c2ccccc2)N1c1ccc([N+](=O)[O-])cc1Cl (stereo not drawn),IC50,Genome polyprotein,60.8 µM (active)
Cc1ccc(C)c(C(=O)COc2ncnc3ccccc23)c1,IC50,[1],15.1 µM (active)
CCc1ccc(S(=O)(=O)NCc2cn3cccc(C)c3n2)s1,IC50,[1],13.8 µM (active)
COc1ccc(N2C(=O)C(Cl)=C(N3CCOCC3)C2=O)cc1,IC50,Genome polyprotein,33.1 µM (active)
same,AC50,[2],10.8 µM (active)
same,EC50,Protein RecA,3 µM (active)
C[C@@H]1CCCCO[C@@H](CN(C)Cc2ccc(C(F)(F)F)cc2)[C@@H](C)CN([C@@H](C)CO)C(=O)c2cc(NS(=O)(=O)c3ccccc3)ccc2O1,AC50,Paired box protein Pax-8,7.21 µM (active)
same,AC50,[3],> 70 µM (inactive)
C[C@@H]1CN([C@@H](C)CO)C(=O)c2cccc(NC(=O)C3CCCCC3)c2O[C@H]1CN(C)Cc1ccc(-c2ccccc2)cc1,AC50,[4],3.29 µM (active)
CC[C@H](CO)Oc1cc(NCc2ccc(Cl)c(Cl)c2)c2ncn(C(C)C)c2c1,AC50,[5],30 µM (active)
O=C1NC(=O)C(=Cc2c[nH]nc2-c2ccccc2)C(=O)N1,IC50,Genome polyprotein,53 µM (active)
O=S(=O)(c1ccc2c(c1)OCCO2)N1CCC(n2nnc3cc(F)ccc32)CC1,IC50,Aminopeptidase N,8.18 µM (active)
Nc1ccccc1Sc1ccc(C(=O)c2ccccc2C(=O)O)cc1[N+](=O)[O-],IC50,Aminopeptidase N,98.9 µM (active)
C[C@@H]1CN([C@H](C)CO)C(=O)c2cc(NS(=O)(=O)c3ccccc3)ccc2O[C@@H](C)CCCCO[C@H]1CN(C)Cc1ccc(Cl)c(Cl)c1,AC50,Paired box protein Pax-8,9.93 µM (active)
same,AC50,[3],45 µM (active)
Cc1noc(C)c1S(=O)(=O)Nc1ccc2c(c1)C(=O)N([C@H](C)CO)C[C@H](C)[C@@H](CN(C)C(=O)Nc1ccc(C(F)(F)F)cc1)OCCCC[C@@H](C)O2,AC50,[4],1.19 µM (active)
COc1ccc(CNC(=O)C2CCN(S(=O)(=O)c3cc(OC)ccc3OC)CC2)cc1,IC50,Aminopeptidase N,99 µM (active)
C[C@@H]1CN([C@@H](C)CO)C(=O)c2cccc(NC(=O)c3cnccn3)c2O[C@@H]1CN(C)Cc1ccc(C(=O)Nc2ccccc2N)cc1,AC50,[4],2.35 µM (active)
O=C(CNC(=O)c1ccccc1Br)N/N=C/c1cc(Br)ccc1O,EC50,cells [6],34.7 µM (active)
same,IC50,Aminopeptidase N,26.6 µM (active)
same,EC50,cells [7],> 350 µM (not active)
COc1ccc(C2(O)CCN(C(=O)NC3CCCCC3)CC2)cc1,IC50,[1],14.5 µM (active)
Cc1noc(NS(=O)(=O)c2ccc(NC(=O)c3ccccc3NS(=O)(=O)c3ccc(F)cc3)cc2)c1C,IC50,Genome polyprotein,40.9 µM (active)
C[C@H]1CCCCO[C@H](CN(C)Cc2ccc(Cl)c(Cl)c2)[C@@H](C)CN([C@@H](C)CO)C(=O)c2cc(NC(=O)Nc3ccccc3)ccc2O1,AC50,Paired box protein Pax-8,13.1 µM (active)
same,AC50,[3],> 70 µM (inactive)
O=C(O)c1cccc(S(=O)(=O)Nc2ccc([N+](=O)[O-])cc2O)c1,IC50,Aminopeptidase N,66.2 µM (active)
C[C@@H]1CN([C@@H](C)CO)C(=O)Cc2cc(NC(=O)CCC(F)(F)F)ccc2O[C@@H]1CN(C)Cc1ccc(C(=O)Nc2ccccc2N)cc1,AC50,[4],2.67 µM (active)
CCc1ccc2oc(C(=O)NCC(c3ccc(OC)cc3)N3CCCCC3)c(C)c2c1 (stereo not drawn),IC50,[1],2.29 µM (active)
same,AC50,[8],3.23 µM (active)
C[C@H]1CN([C@@H](C)CO)C(=O)c2cccc(NC(=O)Nc3ccc(F)cc3)c2O[C@@H]1CN(C)Cc1ccc(C(=O)Nc2ccccc2N)cc1,AC50,[4],3.18 µM (active)
O=c1cc(CSc2nc(NCc3ccccc3)c3ccccc3n2)nc2ccc(Cl)cn12,IC50,[9],26 µM (inactive)
C(=C\c1nc(N2CCCC2)c2ccccc2n1)/c1ccccc1,IC50,[9],8.49 µM (active)
COc1ccc(-c2cc(C(=O)Nc3cc(Br)ccc3O)no2)cc1,IC50,[9],2.09 µM (active)
